According to PubChem BioAssay AID1259407 (Chemical Carcinogenesis Research Information System (CCRIS), 2018):
Active and inactive are the calls of the source. How the calls were made is not given here.

System: CCRIS mutagenicity, Ames/micronucleus/aberration tests
Assay: CCRIS mutagenicity studies

CN(C)P(=O)(N(C)C)N(C)C
mutagenic call (Test System: AMES SALMONELLA TYPHIMURIUM, Strain/Indicator: TA97, Metabolic Activation: HAMSTER LIVER S-9, AROCLOR 1254 (10 OR 30%), Method: PREINCUBATION): inactive; negative | mutagenic call (Test System: AMES SALMONELLA TYPHIMURIUM, Strain/Indicator: TA97, Metabolic Activation: NONE, Method: PREINCUBATION): inactive; negative | mutagenic call (Test System: AMES SALMONELLA TYPHIMURIUM, Strain/Indicator: TA97, Metabolic Activation: NONE, Method: STANDARD PLATE): inactive; negative | mutagenic call (Test System: AMES SALMONELLA TYPHIMURIUM, Strain/Indicator: TA97, Metabolic Activation: RAT LIVER S-9, AROCLOR 1254 (10 OR 30%), Method: PREINCUBATION): inactive; negative | mutagenic call (Test System: AMES SALMONELLA TYPHIMURIUM, Strain/Indicator: TA97, Metabolic Activation: RAT, LIVER, S-9, AROCLOR 1254, Method: STANDARD PLATE): inactive; negative | mutagenic call (Test System: AMES SALMONELLA TYPHIMURIUM, Strain/Indicator: TA97, Metabolic Activation: RAT, LIVER, S-9, AROCLOR 1254, Method: SUSPENSION): active; positive | mutagenic call (Test System: AMES SALMONELLA TYPHIMURIUM, Strain/Indicator: TA97, Metabolic Activation: S-9, Method: STANDARD PLATE): inactive; negative | mutagenic call (Test System: AMES SALMONELLA TYPHIMURIUM, Strain/Indicator: TA98, Metabolic Activation: HAMSTER LIVER S-9, AROCLOR 1254 (10 OR 30%), Method: PREINCUBATION): inactive; negative | mutagenic call (Test System: AMES SALMONELLA TYPHIMURIUM, Strain/Indicator: TA98, Metabolic Activation: NONE, Method: PREINCUBATION): inactive; negative | mutagenic call (Test System: AMES SALMONELLA TYPHIMURIUM, Strain/Indicator: TA98, Metabolic Activation: NONE, Method: STANDARD PLATE): inactive; negative | mutagenic call (Test System: AMES SALMONELLA TYPHIMURIUM, Strain/Indicator: TA98, Metabolic Activation: RAT LIVER S-9, AROCLOR 1254 (10 OR 30%), Method: PREINCUBATION): inactive; negative | mutagenic call (Test System: AMES SALMONELLA TYPHIMURIUM, Strain/Indicator: TA98, Metabolic Activation: RAT, LIVER, S-9, AROCLOR 1254, Method: STANDARD PLATE): inactive; negative | mutagenic call (Test System: AMES SALMONELLA TYPHIMURIUM, Strain/Indicator: TA98, Metabolic Activation: RAT, LIVER, S-9, AROCLOR 1254, Method: SUSPENSION): active; positive | mutagenic call (Test System: AMES SALMONELLA TYPHIMURIUM, Strain/Indicator: TA98, Metabolic Activation: S-9, Method: STANDARD PLATE): inactive; negative | mutagenic call (Test System: AMES SALMONELLA TYPHIMURIUM, Strain/Indicator: TA100, Metabolic Activation: HAMSTER LIVER S-9, AROCLOR 1254 (10 OR 30%), Method: PREINCUBATION): inactive; negative | mutagenic call (Test System: AMES SALMONELLA TYPHIMURIUM, Strain/Indicator: TA100, Metabolic Activation: NONE, Method: PREINCUBATION): inactive; negative | mutagenic call (Test System: AMES SALMONELLA TYPHIMURIUM, Strain/Indicator: TA100, Metabolic Activation: NONE, Method: STANDARD PLATE): inactive; negative | mutagenic call (Test System: AMES SALMONELLA TYPHIMURIUM, Strain/Indicator: TA100, Metabolic Activation: NONE, Method: SUSPENSION): inactive; negative | mutagenic call (Test System: AMES SALMONELLA TYPHIMURIUM, Strain/Indicator: TA100, Metabolic Activation: RAT LIVER S-9, AROCLOR 1254 (10 OR 30%), Method: PREINCUBATION): inactive; negative | mutagenic call (Test System: AMES SALMONELLA TYPHIMURIUM, Strain/Indicator: TA100, Metabolic Activation: RAT, LIVER, S-9, AROCLOR 1254 (4, 10 OR 30%), Method: PREINCUBATION): inactive; negative | mutagenic call (Test System: AMES SALMONELLA TYPHIMURIUM, Strain/Indicator: TA100, Metabolic Activation: RAT, LIVER, S-9, AROCLOR 1254 (10%), Method: STANDARD PLATE): inactive; negative | mutagenic call (Test System: AMES SALMONELLA TYPHIMURIUM, Strain/Indicator: TA100, Metabolic Activation: RAT, LIVER, S-9, AROCLOR 1254, Method: PREINCUBATION): inactive; negative | mutagenic call (Test System: AMES SALMONELLA TYPHIMURIUM, Strain/Indicator: TA100, Metabolic Activation: RAT, LIVER, S-9, AROCLOR 1254, Method: STANDARD PLATE): inactive; negative | mutagenic call (Test System: AMES SALMONELLA TYPHIMURIUM, Strain/Indicator: TA100, Metabolic Activation: RAT, LIVER, S-9, AROCLOR 1254, Method: SUSPENSION): active; positive | mutagenic call (Test System: AMES SALMONELLA TYPHIMURIUM, Strain/Indicator: TA100, Metabolic Activation: S-9, Method: STANDARD PLATE): inactive; negative | mutagenic call (Test System: AMES SALMONELLA TYPHIMURIUM, Strain/Indicator: TA102, Metabolic Activation: NONE, Method: STANDARD PLATE): inactive; negative | mutagenic call (Test System: AMES SALMONELLA TYPHIMURIUM, Strain/Indicator: TA102, Metabolic Activation: S-9, Method: STANDARD PLATE): inactive; negative | mutagenic call (Test System: AMES SALMONELLA TYPHIMURIUM, Strain/Indicator: TA1535, Metabolic Activation: HAMSTER LIVER S-9, AROCLOR 1254 (10 OR 30%), Method: PREINCUBATION): inactive; negative | mutagenic call (Test System: AMES SALMONELLA TYPHIMURIUM, Strain/Indicator: TA1535, Metabolic Activation: NONE, Method: PREINCUBATION): inactive; negative | mutagenic call (Test System: AMES SALMONELLA TYPHIMURIUM, Strain/Indicator: TA1535, Metabolic Activation: NONE, Method: STANDARD PLATE): inactive; negative | mutagenic call (Test System: AMES SALMONELLA TYPHIMURIUM, Strain/Indicator: TA1535, Metabolic Activation: RAT LIVER S-9, AROCLOR 1254 (10 OR 30%), Method: PREINCUBATION): inactive; negative | mutagenic call (Test System: AMES SALMONELLA TYPHIMURIUM, Strain/Indicator: TA1535, Metabolic Activation: RAT, LIVER, S-9, AROCLOR 1254, Method: STANDARD PLATE): inactive; negative | mutagenic call (Test System: AMES SALMONELLA TYPHIMURIUM, Strain/Indicator: TA1537, Metabolic Activation: NONE, Method: STANDARD PLATE): inactive; negative | mutagenic call (Test System: AMES SALMONELLA TYPHIMURIUM, Strain/Indicator: TA1537, Metabolic Activation: RAT, LIVER, S-9, AROCLOR 1254, Method: STANDARD PLATE): inactive; negative | mutagenic call (Test System: AMES SALMONELLA TYPHIMURIUM, Strain/Indicator: TA1537, Metabolic Activation: RAT, LIVER, S-9, AROCLOR 1254, Method: SUSPENSION): active; positive | mutagenic call (Test System: AMES SALMONELLA TYPHIMURIUM, Strain/Indicator: TA1538, Metabolic Activation: NONE, Method: STANDARD PLATE): inactive; negative | mutagenic call (Test System: AMES SALMONELLA TYPHIMURIUM, Strain/Indicator: TA1538, Metabolic Activation: RAT, LIVER, S-9, AROCLOR 1254, Method: STANDARD PLATE): inactive; negative | mutagenic call (Test System: CHINESE HAMSTER OVARY, Strain/Indicator: CHO/6-THIOGUANINE, Metabolic Activation: HAMSTER EMBRYO CELL-MEDIATED): inactive; negative | mutagenic call (Test System: CHINESE HAMSTER OVARY, Strain/Indicator: CHO/6-THIOGUANINE, Metabolic Activation: NONE): inactive; negative | mutagenic call (Test System: CHINESE HAMSTER OVARY, Strain/Indicator: CHO/OUABAIN, Metabolic Activation: HAMSTER EMBRYO CELL-MEDIATED): inactive; negative | mutagenic call (Test System: CHINESE HAMSTER OVARY, Strain/Indicator: CHO/OUABAIN, Metabolic Activation: NONE): inactive; negative | mutagenic call (Test System: CHINESE HAMSTER V-79, Strain/Indicator: V-79 (HGPRT)/6-THIOGUANINE, Metabolic Activation: NONE): inactive; negative | mutagenic call (Test System: CHINESE HAMSTER V-79, Strain/Indicator: V-79 (HGPRT)/6-THIOGUANINE, Metabolic Activation: RAT, LIVER, S-9, PHENOBARBITAL AND BETA-NAPHTHOFLAVONE): inactive; negative | mutagenic call (Test System: CHINESE HAMSTER V-79, Strain/Indicator: V-79/6-THIOGUANINE, Metabolic Activation: NONE, Method: REPLATING): active; positive | mutagenic call (Test System: CHINESE HAMSTER V-79, Strain/Indicator: V-79/OUABAIN, Metabolic Activation: HAMSTER EMBRYO CELL-MEDIATED): inactive; negative | mutagenic call (Test System: CHINESE HAMSTER V-79, Strain/Indicator: V-79/OUABAIN, Metabolic Activation: RAT, LIVER, S-15, PHENOBARBITAL AND 5,6-BENZOFLAVONE): inactive; negative | mutagenic call (Test System: MOUSE LYMPHOMA, Strain/Indicator: L5178Y (TK+/+)/OUABAIN, Metabolic Activation: NONE, Method: SUSPENSION/PLATE): active; positive | mutagenic call (Test System: MOUSE LYMPHOMA, Strain/Indicator: L5178Y (TK+/-)/TRIFLUOROTHYMIDINE, Metabolic Activation: RAT LIVER S-9, AROCLOR 1254, Method: SUSPENSION/PLATE): inactive; negative | mutagenic call (Test System: MOUSE LYMPHOMA, Strain/Indicator: L5178Y (TK+/-)/TRIFLUROTHYMIDINE, Metabolic Activation: NONE, Method: SUSPENSION/PLATE): active; positive | mutagenic call (Test System: MOUSE LYMPHOMA, Strain/Indicator: L5178Y (TK+/TK-), Metabolic Activation: NONE, Method: MICROWELL): active; positive | mutagenic call (Test System: MOUSE LYMPHOMA, Strain/Indicator: L5178Y (TK+/TK-), Metabolic Activation: RAT, LIVER, S-9, AROCLOR 1254, Method: SUSPENSION/PLATE): inactive; negative | mutagenic call (Test System: MOUSE LYMPHOMA, Strain/Indicator: L5178Y (TK+/TK-), Metabolic Activation: RAT, LIVER, S-9, Method: SUSPENSION/PLATE): inactive; negative | mutagenic call (Test System: MOUSE LYMPHOMA, Strain/Indicator: L5178Y (TK+/TK-), Metabolic Activation: S-9, Method: MICROWELL): active; positive | mutagenic call (Test System: UDS RAT HEPATOCYTES, Strain/Indicator: THY INCORP, Metabolic Activation: NONE, Method: LIQUID SCINTILLATION COUNTING): active; positive
